Source: the NIST ThermoML archive (doi:10.1021/je401097f)
Numbers after ± are expanded uncertainties.

Legend:
[1] = refractive index (other wavelength) (dimensionless); xn = mol fraction of the nth substance listed; details: 296.36 K, 100 kPa, Liquid, Wavelength=632.8 nm, Standard Abbe refractometry
[2] = refractive index (other wavelength) (dimensionless); details: 100 kPa, Liquid, Wavelength=632.8 nm, Standard Abbe refractometry

O=[N+]([O-])c1ccccc1 [nitrobenzene] + CCCCCCCCC
refractive index ([1]; x1 = 0.153): 1.4162 ± 0.0004
refractive index ([1]; x1 = 0.2): 1.4207 ± 0.0005
refractive index ([1]; x1 = 0.275): 1.4284 ± 0.0005
refractive index ([1]; x1 = 0.379): 1.4401 ± 0.0005
refractive index ([1]; x1 = 0.541): 1.4612 ± 0.0005
refractive index ([1]; x1 = 0.594): 1.4691 ± 0.0005
refractive index ([1]; x1 = 0.688): 1.4838 ± 0.0005
refractive index ([1]; x1 = 0.799): 1.5035 ± 0.0006
refractive index ([1]; x1 = 0.896): 1.5231 ± 0.0006
refractive index ([1]; x1 = 1): 1.5467 ± 0.0004

CCCCCCCCC [nonane] + O=[N+]([O-])c1ccccc1
refractive index ([1]; x2 = 0): 1.4029 ± 0.0004

CCCCCCCCC [nonane]
refractive index ([2]; 290.88 K): 1.4053 ± 0.0004
refractive index ([2]; 291.94 K): 1.4048 ± 0.0004
refractive index ([2]; 292.73 K): 1.4044 ± 0.0004
refractive index ([2]; 293.55 K): 1.404 ± 0.0004
refractive index ([2]; 294.5 K): 1.4036 ± 0.0004
refractive index ([2]; 295.51 K): 1.4031 ± 0.0004
refractive index ([2]; 296.48 K): 1.4026 ± 0.0004
refractive index ([2]; 297.42 K): 1.4022 ± 0.0004

O=[N+]([O-])c1ccccc1 [nitrobenzene]
refractive index ([2]; 288.97 K): 1.5501 ± 0.0004
refractive index ([2]; 289.62 K): 1.5497 ± 0.0004
refractive index ([2]; 290.5 K): 1.5493 ± 0.0004
refractive index ([2]; 291.45 K): 1.5488 ± 0.0004
refractive index ([2]; 292.36 K): 1.5484 ± 0.0004
refractive index ([2]; 293.38 K): 1.5479 ± 0.0004
refractive index ([2]; 294.4 K): 1.5474 ± 0.0004
refractive index ([2]; 295.5 K): 1.5469 ± 0.0004
refractive index ([2]; 301.66 K): 1.5439 ± 0.0004
refractive index ([2]; 302.72 K): 1.5433 ± 0.0004
refractive index ([2]; 303.85 K): 1.5428 ± 0.0004
refractive index ([2]; 304.98 K): 1.5423 ± 0.0004
refractive index ([2]; 306.08 K): 1.5418 ± 0.0004
refractive index ([2]; 307.2 K): 1.5412 ± 0.0004
refractive index ([2]; 308.25 K): 1.5407 ± 0.0004
refractive index ([2]; 309.34 K): 1.5402 ± 0.0004
